# Reference: US12281084B2, “Acetyl-CoA synthetase 2 (ACSS2) inhibitors and methods using same” (The Wistar Institute, priority 2019, dated 2025)
# Experiments:
# SKBr3 cells = experiment: 13C2-acetate tracing in SKBr3 cells; format: cell-based, human; conditions: 100 μM 13C2-acetate, 24 hr, N10 or H1 (FIG. 2B)
# Experimental: All metabolomic experiments were performed in serum-like modified Eagle's medium (SMEM). SMEM contains 54 different nutrients that are found in the bloodstream at concentrations that are physiologically relevant to humans. SMEM was supplemented with 10% or 1% fetal bovine serum (FBS; Life Technologies). Cells were grown in normoxia (atmospheric oxygen) or hypoxia (1% oxygen) while being incubated in uniformly labeled ^13C2-acetate (0.100 mM; Cambridge Isotope Laboratories). Lengths of incubation are described in the figure legends. For extraction of metabolites from cultured cells, SMEM medium was aspirated and cells were washed once in ice-cold PBS. Metabolites were extracted by adding a solution of LC-MS grade methanol/acetonitrile/water (5:3:2) to the well. […]
# LC-MS analysis was performed on a Q Exactive Hybrid Quadrupole-Orbitrap HF-X MS (ThermoFisher Scientific) equipped with a HESI II probe and coupled to a Vanquish Horizon UHPLC system (ThermoFisher Scientific). […] Samples were analyzed in full MS scan with polarity switching at scan range 65 to 975 m/z; 120,000 resolution; automated gain control (AGC) target of 1E6; and maximum injection time (max IT) of 100 milliseconds. Identification and quantitation of metabolites was performed using an annotated compound library and TraceFinder 4.1 software. […]
# recombinant human ACSS2 = target: T1, recombinant human ACSS2 (Homo sapiens, UniProt Q9NR19); experiment: ACSS2 biochemical assay (Transcreener AMP assay); conditions: in vitro biochemical TranScreener assay; mean±S.D., n≥3 (FIG. 1C)
# T1 construct: purchased Origene TP304260
# T1 sequence (Q9NR19 whole entry): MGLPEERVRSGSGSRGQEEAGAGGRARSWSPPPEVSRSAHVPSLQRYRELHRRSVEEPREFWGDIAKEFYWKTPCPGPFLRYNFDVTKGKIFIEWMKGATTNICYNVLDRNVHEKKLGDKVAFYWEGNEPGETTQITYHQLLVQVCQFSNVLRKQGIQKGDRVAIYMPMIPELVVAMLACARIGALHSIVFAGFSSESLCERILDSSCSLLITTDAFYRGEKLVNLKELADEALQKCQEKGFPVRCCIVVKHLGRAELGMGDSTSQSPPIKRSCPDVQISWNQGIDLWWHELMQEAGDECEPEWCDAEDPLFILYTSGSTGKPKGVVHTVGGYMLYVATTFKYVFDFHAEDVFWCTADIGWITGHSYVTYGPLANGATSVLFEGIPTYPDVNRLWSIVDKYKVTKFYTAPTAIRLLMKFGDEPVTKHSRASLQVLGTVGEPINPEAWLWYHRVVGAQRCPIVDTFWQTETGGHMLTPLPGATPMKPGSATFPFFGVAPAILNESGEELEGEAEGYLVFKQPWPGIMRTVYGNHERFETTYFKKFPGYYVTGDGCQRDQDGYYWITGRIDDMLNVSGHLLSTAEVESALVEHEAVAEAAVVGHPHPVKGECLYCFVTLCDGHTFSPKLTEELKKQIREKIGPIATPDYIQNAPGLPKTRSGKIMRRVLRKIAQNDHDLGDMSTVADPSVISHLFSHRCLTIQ
# Experimental: ACSS2 enzyme activity was measured using the TRANSCREENER® TRF AMP/GMP assay (Bellbrook Labs). Recombinant ACSS2 was purchased from Origene. The assay was performed in white, opaque, low volume 384 well plates. Test compounds were diluted in 100% DMSO and then 100 nL of each dilution was transferred using the Janus MDT Nanohead to assay plates containing 3 μL ACSS2 (2.5 nM) in assay buffer (30 mM HEPES, pH 7.4, 140 mM NaCl, 2 mM MgCl2, 5 mM sodium acetate, 2 mM DTT, 0.005% Brij35). Three microliters of substrate mix containing 100 μM ATP and 10 μM coenzyme A was added to the plates followed by a 120 min incubation. The final concentrations of enzyme and substrates in the reaction mix was 1.25 nM ACSS2, 50 μM ATP, and 5 μM coenzyme A. After incubation, 3 μL of terbium conjugated AMP antibody and AMP tracer was added to the plates according to the methods described by BellBrook Labs. After an additional 30 min, the HTRF signal was measured using an Envision Plate reader. Data were normalized to % inhibition, where 100% inhibition is equal to the counts obtained in the absence of ACSS2, and 0% inhibition is equal to the counts obtained in the complete reaction including a DMSO control.
# A robust biochemical screening assay was set up for testing compounds as potential ACSS2 inhibitors. […]
# BT474 tumors = experiment: QuantSeq 3' mRNA sequencing of BT474 tumor tissue; format: in vivo, mouse; conditions: vehicle vs treated mice
# Experimental: QuantSeq 3′ mRNA sequencing of BT474 tumor tissue from vehicle and VY-3-135 treated mice was performed. Similar to in vitro results in FIG. 3, the effects of VY-3-135 on gene transcription in vivo were minimal. […] Furthermore, of the 248 differentially regulated genes only 7 changed by more than 2-fold and none by more than 2.5-fold (FIGS. 14A-14B).
smiles,measurement,setting,value
"CCn1c(C(O)(c2ccccc2)c2ccccc2)nc2ccc(C(=O)NC[C@@H](C)O)cc21 [VY-3-135, (R)-1-ethyl-2-(hydroxydiphenylmethyl)-N-(2-hydroxypropyl)-1H-benzo[d]imidazole-6-carboxamide]",fatty acid synthesis from acetate (13C2-acetate labeling of palmitate),SKBr3 cells,completely blocked fatty acid synthesis from acetate
same,IC50,recombinant human ACSS2,0.044 ± 0.00385 µM
same,effects on gene transcription in vivo,BT474 tumors,minimal
